Experimental data as given in ChEMBL document CHEMBL2429721, “Novel 2,6-bis(4-methoxyphenyl)-1-methylpiperidin-4-one oxime esters: synthesis and a new insight into their antioxidant and antimicrobial potential” (Med Chem Res, 2013).

Assays:
Format in all cases: functional
Candida albicans [1] = assay: Antifungal activity against Candida albicans MTCC 3017 assessed as growth inhibition at 500 ug/mL after 72 hrs by agar well plate method; conditions: MTCC 3017, 72 h, read-out: DIZ
Candida albicans [2] = assay: Antifungal activity against Candida albicans MTCC 3017 assessed as growth inhibition at 1000 ug/mL after 72 hrs by agar well plate method; conditions: MTCC 3017, 72 h, read-out: DIZ
[3] = Antifungal activity against Chrysosporium keratinophilum MTCC 2827 assessed as growth inhibition at 500 ug/mL after 72 hrs by agar well plate method
Pseudomonas aeruginosa [4] = assay: Antibacterial activity against Pseudomonas aeruginosa ATCC 27853 assessed as growth inhibition at 500 ug/mL after 24 hrs by agar well plate method; conditions: ATCC 27853, 24 h, read-out: DIZ
Pseudomonas aeruginosa [5] = assay: Antibacterial activity against Pseudomonas aeruginosa ATCC 27853 assessed as growth inhibition at 1000 ug/mL after 24 hrs by agar well plate method; conditions: ATCC 27853, 24 h, read-out: DIZ
Staphylococcus aureus [6] = assay: Antibacterial activity against Staphylococcus aureus ATCC 25923 assessed as growth inhibition at 500 ug/mL after 24 hrs by agar well plate method; conditions: ATCC 25923, 24 h, read-out: DIZ
Staphylococcus aureus [7] = assay: Antibacterial activity against Staphylococcus aureus ATCC 25923 assessed as growth inhibition at 1000 ug/mL after 24 hrs by agar well plate method; conditions: ATCC 25923, 24 h, read-out: DIZ
Escherichia coli [8] = assay: Antibacterial activity against Escherichia coli ATCC 25922 assessed as growth inhibition at 500 ug/mL after 24 hrs by agar well plate method; conditions: ATCC 25922, 24 h, read-out: DIZ
Escherichia coli [9] = assay: Antibacterial activity against Escherichia coli ATCC 25922 assessed as growth inhibition at 1000 ug/mL after 24 hrs by agar well plate method; conditions: ATCC 25922, 24 h, read-out: DIZ
[10] = Antioxidant activity assessed as cupric ion reducing activity at 10 uM after 30 mins by CUPRAC assay
[11] = Antioxidant activity assessed as ferric ion reducing activity at 10 uM after 20 mins by FRAP assay
[12] = Antioxidant activity assessed as ABTS free radical scavenging activity after 30 mins
[13] = system: Radical scavenging activity; assay: Antioxidant activity assessed as DPPH free radical scavenging activity after 20 mins by UV-visible spectrophotometric analysis
Aspergillus flavus [14] = assay: Antifungal activity against Aspergillus flavus MTCC 3306 assessed as growth inhibition at 1000 ug/mL after 72 hrs by agar well plate method; conditions: MTCC 3306, 72 h, read-out: DIZ
Aspergillus flavus [15] = assay: Antifungal activity against Aspergillus flavus MTCC 3306 assessed as growth inhibition at 500 ug/mL after 72 hrs by agar well plate method; conditions: MTCC 3306, 72 h, read-out: DIZ
[16] = Antifungal activity against Chrysosporium keratinophilum MTCC 2827 assessed as growth inhibition at 1000 ug/mL after 72 hrs by agar well plate method

| Compound | zone of inhibition at 500 µg/mL (Candida albicans [1]) | zone of inhibition at 1000 µg/mL (Candida albicans [2]) | inhibition zone (IZ) [3] | zone of inhibition at 500 µg/mL (Pseudomonas aeruginosa [4]) | zone of inhibition at 1000 µg/mL (Pseudomonas aeruginosa [5]) | zone of inhibition at 500 µg/mL (Staphylococcus aureus [6]) | zone of inhibition at 1000 µg/mL (Staphylococcus aureus [7]) | zone of inhibition at 500 µg/mL (Escherichia coli [8]) | zone of inhibition at 1000 µg/mL (Escherichia coli [9]) | Activity [10] | Activity [11] | IC50 [12] | IC50 [13] | zone of inhibition at 1000 µg/mL (Aspergillus flavus [14]) | zone of inhibition at 500 µg/mL (Aspergillus flavus [15]) | inhibition zone (IZ) [16] |
| --- | --- | --- | --- | --- | --- | --- | --- | --- | --- | --- | --- | --- | --- | --- | --- | --- |
| COc1ccc(C2CC(=NOC(=O)c3cc(O)c(O)c(O)c3)CC(c3ccc(OC)cc3)N2C)cc1 (stereo not given) | 6 mm | 8 mm | 2 mm | 3 mm | 4 mm | 3 mm | 5 mm | 4 mm | 6 mm | 0.361 | 0.373 | 18 µM | 11 µM | 3 mm | 1 mm | 3 mm |
| COc1ccc(C2CC(=NOC(=O)c3cc(O)cc(O)c3)CC(c3ccc(OC)cc3)N2C)cc1 (stereo not given) | 3 mm | 3 mm | 1 mm | 4 mm | 5 mm | 4 mm | 4 mm | 4 mm | 3 mm | 0.363 | 0.352 | 19 µM | 12 µM | 1 mm | 0 mm | 0 mm |
| OC(Cn1cncn1)(Cn1cncn1)c1ccc(F)cc1F [FLUCONAZOLE] | 20 mm | 22 mm | 15 mm | – | – | – | – | – | – | – | – | – | – | 13 mm | 11 mm | 17 mm |
| COc1ccc(C2CC(=NOC(=O)c3ccc(F)cc3)CC(c3ccc(OC)cc3)N2C)cc1 (stereo not given) | 10 mm | 16 mm | 7 mm | 15 mm | 19 mm | 9 mm | 13 mm | 12 mm | 17 mm | 0.163 | 0.236 | 152 µM | 86 µM | 12 mm | 10 mm | 9 mm |
| COc1ccc(C2CC(=NOC(=O)c3cccc(Cl)c3)CC(c3ccc(OC)cc3)N2C)cc1 (stereo not given) | 7 mm | 10 mm | 5 mm | 8 mm | 11 mm | 7 mm | 9 mm | 7 mm | 12 mm | 0.179 | 0.243 | 136 µM | 186 µM | 7 mm | 6 mm | 7 mm |
| COc1ccc(C2CC(=NOC(=O)c3cc(OC)c(OC)c(OC)c3)CC(c3ccc(OC)cc3)N2C)cc1 (stereo not given) | 3 mm | 3 mm | 2 mm | 3 mm | 5 mm | 3 mm | 5 mm | 3 mm | 4 mm | 0.232 | 0.286 | 93 µM | 71 µM | 2 mm | 3 mm | 5 mm |
| COc1ccc(C2CC(=NOC(=O)c3ccc(C)cc3)CC(c3ccc(OC)cc3)N2C)cc1 (stereo not given) | 1 mm | 2 mm | 2 mm | 2 mm | 2 mm | 1 mm | 3 mm | 1 mm | 3 mm | 0.127 | 0.154 | 368 µM | 143 µM | 2 mm | 1 mm | 1 mm |
| COc1ccc(C2CC(=NOC(=O)c3ccc(OC)cc3OC)CC(c3ccc(OC)cc3)N2C)cc1 (stereo not given) | 4 mm | 6 mm | 3 mm | 6 mm | 6 mm | 2 mm | 4 mm | 3 mm | 5 mm | 0.236 | 0.296 | 80 µM | 56 µM | 4 mm | 3 mm | 4 mm |
| COc1ccc(C2CC(=NOC(=O)c3ccc(Cl)cc3)CC(c3ccc(OC)cc3)N2C)cc1 (stereo not given) | 10 mm | 11 mm | 7 mm | 12 mm | 16 mm | 8 mm | 12 mm | 10 mm | 16 mm | 0.192 | 0.258 | 135 µM | 98 µM | 8 mm | 5 mm | 8 mm |
| COc1ccc(C2CC(=NOC(=O)c3ccc([N+](=O)[O-])cc3)CC(c3ccc(OC)cc3)N2C)cc1 (stereo not given) | 7 mm | 6 mm | 3 mm | 5 mm | 8 mm | 3 mm | 7 mm | 3 mm | 7 mm | 0.157 | 0.216 | 280 µM | 120 µM | 3 mm | 2 mm | 4 mm |
| COc1ccc(C2CC(=NOC(=O)c3cccc(O)c3)CC(c3ccc(OC)cc3)N2C)cc1 (stereo not given) | 1 mm | 3 mm | 0 mm | 3 mm | 5 mm | 4 mm | 6 mm | 5 mm | 6 mm | 0.265 | 0.321 | 34 µM | 21 µM | 1 mm | 0 mm | 1 mm |
| COc1ccc(C2CC(=NOC(=O)c3ccc(O)cc3)CC(c3ccc(OC)cc3)N2C)cc1 (stereo not given) | 2 mm | 2 mm | 1 mm | 2 mm | 3 mm | 3 mm | 5 mm | 3 mm | 4 mm | 0.293 | 0.333 | 25 µM | 15 µM | 0 mm | 1 mm | 2 mm |
| COc1ccc(C(=O)ON=C2CC(c3ccc(OC)cc3)N(C)C(c3ccc(OC)cc3)C2)cc1 (stereo not given) | 5 mm | 7 mm | 3 mm | 3 mm | 4 mm | 1 mm | 3 mm | 1 mm | 2 mm | 0.245 | 0.31 | 68 µM | 32 µM | 5 mm | 4 mm | 3 mm |
| COc1ccc(C2CC(=NOC(=O)c3ccccc3O)CC(c3ccc(OC)cc3)N2C)cc1 (stereo not given) | 2 mm | 6 mm | 3 mm | 3 mm | 4 mm | 4 mm | 4 mm | 3 mm | 5 mm | 0.272 | 0.33 | 29 µM | 19 µM | 3 mm | 2 mm | 5 mm |
| CN[C@@H]1[C@H](O[C@H]2[C@H](O[C@H]3[C@H](O)[C@@H](O)[C@H](N=C(N)N)[C@@H](O)[C@@H]3N=C(N)N)O[C@@H](C)[C@]2(O)C=O)O[C@@H](CO)[C@H](O)[C@H]1O [STREPTOMYCIN] | – | – | – | 13 mm | 16 mm | 10 mm | 15 mm | 10 mm | 16 mm | – | – | – | – | – | – | – |
